US20050164951A1, “Inhibitors for the soluble epoxide hydrolase” (The Regents of the University of California, priority 2003, published 2005)
Entries after “also recorded” stand apart in the source; their conditions may differ.

Legend:
[1] = Pharmacokinetics of 687 and 800 in a human subject; assay type: in vivo; details: FIG. 11; single oral administration of either 687 or 800 to a human subject
Experimental: (§1) Serial bled blood samples (3-50 μL) were collected from finger tips into 50 μL heparinized capillary tube at various time points (0.5, 1, 2, 4, 6, 12 and 24 hr) after administration. These samples were used to measure parent compounds and their metabolites using LC-MS/MS as described above for experiments with mice. Blood samples were added 400 μL of distilled water and 25 μL of internal standard (500 ng/mL CTU), and vortexed. The blood samples were then extracted with 500 μL of ethyl acetate twice and the ethyl acetate layer was dried under nitrogen. The residue was reconstituted in 25 μL of methanol, and aliquots (10 μL) were injected onto the LC-MS/MS system as described above. Biological end points came from clinical chemistry samples run at The University of California Davis Clinical Laboratory and a series of 6 inflammatory markers including C reactive protein were run blind at the University of California Davis Department of Nephrology.

[2] = test system: linoleate and arachidonate derived epoxides and diols; test: Urinary oxylipins in angiotensin II infused rats; assay type: in vivo, rat; details: ANGII infused Sprague-Dawley rats, subcutaneous injection, urine 24 hr post exposure, LC/MS/MS
From the text: In this example, hypertension was induced in one group of Sprague-Dawley rats by the infusion of angiotensin II (ANGII).

[3] = Pharmacokinetics after oral gavage in mice; assay type: in vivo, mouse; details: 5 mg/kg orally
Experimental: Animals. Male Swiss Webster mice, 6 weeks-old, were obtained from Charles River (Calif., USA). […] The body weight of animals used in all the experiments ranged from 28 g to 38 g. […] Administration and measurement. […] Then the samples were centrifuged at 6000 rpm for 5 min, and the ethyl acetate layer was dried under nitrogen. The residue was reconstituted in 25 μL of methanol, and aliquots (5 μL) were injected onto the LC-MS/MS system. Analysis. Pharmacokinetics analysis was performed using SigmaPlot software system (SPSS science, Chicago, Ill.). […] AUC=a/b Where: • C=the total blood concentration at time t • a=the extrapolated zero intercept b=the apparent first-order elimination rate constant

[4] = Metabolic stability in rat hepatic microsomes with NADPH generating system; assay type: in vitro ADME
Experimental: FIG. 6 is a graph illustrating the metabolic stabilities of 1-adamantyl-3-dodecyl urea (686) and 1-cyclohexyl-3-dodecyl urea (297) in rat hepatic microsomes. Microsomes were incubated with 1 μM 686 or 297 in the presence of an NADPH generating system. Data are expressed as mean ±SD of triplicate experiments.
To evaluate the metabolic stability of these inhibitors, the microsomal and NADPH dependent metabolism of a number of potent sEH inhibitors was evaluated. […] The first step in the metabolic transformation of the n-alkyl to n-alkanoic acid derivatives is an NAPDH dependent process carried out by cytochrome P450 dependent omega hydroxylation in rodent and human hepatic tissue preparations (see FIG. 8). When in vivo metabolism was evaluated, evidence for the beta-oxidation of the alkanoic acid derivatives was also found (see FIG. 9).

[5] = Cream on index finger of a patient with Raynaud syndrome before cold exposure; assay type: in vivo, human; details: cream applied to a finger before cold exposure
Experimental: The experimental design involved preparing the Vanicream solutions with ethanol with or without active compound, then covering the syringe barrels with aluminum foil. The compounds were applied in a bind fashion approximately 20 minutes before exposure and then the hands were exposed to cold for approximately 30 minutes and the results recorded. The following day the results were decoded. Treatments (left or right index finger) were random. […] The test compounds were dissolved in ethanol at a concentration of 10 mg/mL and this in turn mixed with commercial Vanicream at a 10:1 concentration to give 1 mg/mL final concentration of active ingredient in the Vanicream/ethanol mixture. Approximately 100 μL of cream (±sEH inhibitor) were applied to a single finger. The first two columns indicate that over a range of exposure conditions the results from the left and right […] were similar. […] Since the experiment was run blind, the left and right index fingers were treated in a random fashion. For convenience the treatments are shown on the right in each case. […]

human sEH = target: T1, human sEH (Homo sapiens, UniProt P34913); test: Inhibition of recombinant human sEH, IC50 assay with 4-nitrophenyl-trans-2,3-epoxy-3-phenylpropyl carbonate as substrate; assay type: biochemical; details: Table 2; […] enzyme, 5 min preincubation, pH 7.4, 30° C.; means ± SD; read-out: IC50 (μM) Human sEH
T1 construct: made in house; host or cells: baculovirus expression system
T1 sequence (P34913 1-555): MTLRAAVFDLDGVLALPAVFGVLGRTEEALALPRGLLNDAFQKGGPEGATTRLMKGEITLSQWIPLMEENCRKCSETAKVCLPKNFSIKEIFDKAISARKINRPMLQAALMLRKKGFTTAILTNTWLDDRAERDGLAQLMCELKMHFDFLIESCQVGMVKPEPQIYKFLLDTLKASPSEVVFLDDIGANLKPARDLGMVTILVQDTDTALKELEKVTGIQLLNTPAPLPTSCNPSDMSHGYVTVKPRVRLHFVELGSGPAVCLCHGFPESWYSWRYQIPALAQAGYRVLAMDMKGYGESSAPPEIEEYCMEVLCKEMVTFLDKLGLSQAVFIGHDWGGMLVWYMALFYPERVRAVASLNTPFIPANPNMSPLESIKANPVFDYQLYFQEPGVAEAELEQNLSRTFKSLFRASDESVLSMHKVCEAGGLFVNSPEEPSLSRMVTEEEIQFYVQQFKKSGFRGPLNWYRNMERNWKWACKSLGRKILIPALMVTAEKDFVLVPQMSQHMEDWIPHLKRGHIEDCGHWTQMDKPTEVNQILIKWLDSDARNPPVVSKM
Experimental: (§2) Assays were performed in triplicate. […] The curve was generated from at least three separate runs, each in triplicate, to obtain the standard deviation (SD) given in Table 1 thru Table 4.

Water solubility = assay type: physicochemical; details: 772 vs. 789, 791 vs. 790, 297 vs. 686
mouse sEH = target: T2, mouse sEH (Mus musculus, UniProt P34914); test: Inhibition of recombinant mouse sEH, IC50 assay with 4-nitrophenyl-trans-2,3-epoxy-3-phenylpropyl carbonate as substrate; assay type: biochemical; details: Table 2; 0.12 μM enzyme, 5 min preincubation, pH 7.4, 30° C.; means ± SD; read-out: IC50 (μM) Mouse sEH
T2 construct: made in house; host or cells: baculovirus expression system
T2 sequence (P34914 1-554): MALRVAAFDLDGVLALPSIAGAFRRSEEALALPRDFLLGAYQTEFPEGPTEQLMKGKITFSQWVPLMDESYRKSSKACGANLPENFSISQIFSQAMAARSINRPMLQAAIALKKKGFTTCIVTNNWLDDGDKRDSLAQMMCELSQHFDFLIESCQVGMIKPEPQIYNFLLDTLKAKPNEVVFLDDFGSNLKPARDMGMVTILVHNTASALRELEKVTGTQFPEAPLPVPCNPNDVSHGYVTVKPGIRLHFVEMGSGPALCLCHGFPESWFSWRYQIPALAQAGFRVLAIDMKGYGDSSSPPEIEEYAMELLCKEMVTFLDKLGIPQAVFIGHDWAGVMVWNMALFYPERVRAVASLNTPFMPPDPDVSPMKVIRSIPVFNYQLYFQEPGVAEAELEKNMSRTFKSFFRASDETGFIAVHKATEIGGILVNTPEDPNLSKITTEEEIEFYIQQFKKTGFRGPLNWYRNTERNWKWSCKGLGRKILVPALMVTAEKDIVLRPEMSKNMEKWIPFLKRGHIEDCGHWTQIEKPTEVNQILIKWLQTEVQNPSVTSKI
Experimental: as §2

[6] = Oral AUDA butyl ester (800) in a patient with end stage renal disease: clinical chemistry, C reactive protein, blood pressure; assay type: in vivo, human
Experimental: as §1, with “These” for “Serial bled blood samples (3-50 μL) were collected from finger tips into 50 μL heparinized capillary tube at various time points (0.5, 1, 2, 4, 6, 12 and 24 hr) after administration. These”

[7] = Blood concentration after oral administration of 950 and AUDA-nBE, human pharmacokinetic profile; assay type: in vivo
Experimental: FIG. 16 provides a sample preparation procedure for a pharmacokinetic study. A 5 μl whole blood sample was drawn into a capillary at a specific time point, each sample was extracted and anaylzed by LC/MS-MS. […] AUDA is the active metabolite of AUDA-nBE. […] 0.05 mg/kg. (B). 0.1 mg/kg. […] The compounds were administered at the same time in the same formulation. […] 21 mg (0.3 mg/kg) 950 and AUDA-nBE were orally administrated with starch. (B). 7 mg (0.1 mg/kg) formulated 950 and AUDA-NBE were taken with (HPMC, starch and lactose). (C). […] 950 with HPMC and Starch. (B). 950 in lactose and HPMC. […] HPMC forms a gel which slowly erodes; lactose enhances erosion at it moves through the gut and starch retards it. These formulations are combined, ball milled, and then placed in ‘0’ capsule and not compressed.

[8] = assay type: in vitro ADME, rat and human
From the text: Both rat and human microsomes were used for the 950 metabolism study.

[9] = Effect of compound 950 and of Norvasc on blood pressure; assay type: in vivo; details: 950 0.05 mg/Kg per day

## O=C(O)CCCCCCCCCCCNC(=O)NC12CC3CC(CC(C3)C1)C2 [Compound 687, 1-(1-adamantyl)-3-(12-dodecanoic acid)urea]
[1]
  maximum circulating concentration of 687, humans compared with mice: much higher in humans
[2]
  urinary diol concentrations (DHOMEs, DHETs): decrease in diol concentrations
  urinary epoxides (EpOMEs, EETs): increase in urinary epoxides
[3]
  time to reach the maximum concentration: 30 min
[4]; 1 μM, NADPH generating system, FIGS. 6 and 7
  metabolic stability in microsomal preparations: stable

## CCCCCCCCCCCCNC(=O)NC1CCCCC1 [Compound 297, 1-cyclohexyl-3-dodecyl urea, reference compound]
[5]
  effect on Raynaud's symptoms: reduces severity of Raynaud's symptoms
Human sEH
  IC50: 0.14 ± 0.01 µM

## CCCCCCCCCCCCNC(=O)NC12CC3CC(CC(C3)C1)C2 [Compound 686, 1-adamantyl-3-dodecylurea, reference compound]
Water solubility
  solubility relative to the corresponding cyclohexyl derivative: approximately 2 x
Human sEH
  IC50: 0.1 ± 0.01 µM
[3]
  time to reach the maximum concentration: 120 min
Mouse sEH
  IC50: 0.05 ± 0.01 µM

## O=C(NC1CCCCC1)NC12CC3CC(CC(C3)C1)C2 [Compound 192, 1-adamantyl-3-cyclohexylurea]
[4]; rat, microsomes
  metabolic stability in microsomal preparations: improved stability

## CCCCOC(=O)CCCCCCCCCCCNC(=O)NC12CC3CC(CC(C3)C1)C2 [Compound 800, 1-(1-Adamantyl)-3-(11-butoxycarbonylundecyl)urea]
[6]; patient approaching ESRD, brief oral treatment with low doses
  serum profile of regulatory lipids: altered the serum profile of regulatory lipids in a positive manner
[6]; same trial, ESRD without drug 5.0, normal 0.5-1.3
  Creatinine: 4.9 mg/dL
[7]; FIG. 23, 7mg each in tristerate (0.1 mg/kg) orally, human
  Cmax: rather high Cmax
[7]; FIG. 26, starch, HPMC/starch/lactose or lactose, 0.1-0.3 mg/kg orally
  performance of simple dry formulations: very poorly
[7]; FIGS. 23 and 26, oral, human, listed as AUDA-BE
  absorption depending on formulation: only absorbed efficiently in a lipid formulation; also recorded: bioavailable in lipid formulations

## CCOCCOCCOCCCCCNC(=O)NC12CC3CC(CC(C3)C1)C2 [Compound 950]
[8]
  major metabolite in vitro: hydroxy metabolite was the major metabolite
[7]; human, in vivo, po, 0.1 mg/kg
  T1/2 compared with AUDA-BE: longer T1/2
[7]; in vivo
  pharmacokinetics: improved pharmacokinetics

## CCOC(=O)C1=C(COCCN)NC(C)=C(C(=O)OC)C1c1ccccc1Cl (centres unmarked) [Norvasc]
[9]; Norvasc 5.0 mg per day (separate experiment), W/O 950 151, W/O Norvasc 145
  Systolic Avg.: 143
[9]; Norvasc 5.0 mg per day, W/O 950 97, W/O Norvasc 79
  Pulse Avg.: 89
[9]; Norvasc 5.0 mg per day, W/O 950 103, W/O Norvasc 100
  Diastolic Avg.: 95
